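Interpolation was linear, between the two tested concentrations surrounding the appropriate level; five concentrations were tested over 48 hours in 96-well plates. GI50 marks 50% less growth. TGI marks complete inhibition of growth.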
What was measured:
Test in all cases: inhibition of tumour cell growth, NCI panel, 48 h
SF-539 CNS = system: SF-539 CNS
SK-MEL-28 melanoma = system: SK-MEL-28 melanoma
ACHN renal = system: ACHN renal
MDA-MB-231 breast = system: MDA-MB-231 breast
NCI/ADR-RES ovarian = system: NCI/ADR-RES ovarian
NCI-H226 lung = system: NCI-H226 lung
HS 578T breast = system: HS 578T breast
A498 renal = system: A498 renal
UACC-62 melanoma = system: UACC-62 melanoma
COLO 205 colon = system: COLO 205 colon
DU-145 prostate = system: DU-145 prostate
SW-620 colon = system: SW-620 colon
HL-60(TB) leukemia = system: HL-60(TB) leukemia
OVCAR-4 ovarian = system: OVCAR-4 ovarian
MALME-3M melanoma = system: MALME-3M melanoma
OVCAR-5 ovarian = system: OVCAR-5 ovarian
SK-OV-3 ovarian = system: SK-OV-3 ovarian
SK-MEL-5 melanoma = system: SK-MEL-5 melanoma
MOLT-4 leukemia = system: MOLT-4 leukemia
MDA-MB-435 = system: MDA-MB-435
RPMI-8226 leukemia = system: RPMI-8226 leukemia
SR leukemia = system: SR leukemia
NCI-H460 lung = system: NCI-H460 lung
K-562 leukemia = system: K-562 leukemia
RXF 393 renal = system: RXF 393 renal
U251 CNS = system: U251 CNS
IGROV1 ovarian = system: IGROV1 ovarian
SNB-75 CNS = system: SNB-75 CNS
A549 NSCLC = system: A549 NSCLC
CCRF-CEM leukemia = system: CCRF-CEM leukemia
HOP-62 NSCLC = system: HOP-62 NSCLC
SF-268 CNS = system: SF-268 CNS
786-0 renal = system: 786-0 renal
M14 melanoma = system: M14 melanoma
CAKI-1 renal = system: CAKI-1 renal
T-47D breast = system: T-47D breast
MCF7 breast = system: MCF7 breast
NCI-H23 lung = system: NCI-H23 lung
SK-MEL-2 melanoma = system: SK-MEL-2 melanoma
NCI-H522 lung = system: NCI-H522 lung
SNB-19 CNS = system: SNB-19 CNS
HOP-92 NSCLC = system: HOP-92 NSCLC
BT-549 breast = system: BT-549 breast
SN12C renal = system: SN12C renal
HCT-116 colon = system: HCT-116 colon
EKVX NSCLC = system: EKVX NSCLC
HCT-15 colon = system: HCT-15 colon
PC-3 prostate = system: PC-3 prostate
OVCAR-3 ovarian = system: OVCAR-3 ovarian
HT29 colon = system: HT29 colon
TK-10 renal = system: TK-10 renal
LOX IMVI melanoma = system: LOX IMVI melanoma
OVCAR-8 ovarian = system: OVCAR-8 ovarian
UO-31 renal = system: UO-31 renal
SF-295 CNS = system: SF-295 CNS
HCC-2998 colon = system: HCC-2998 colon
KM12 colon = system: KM12 colon
UACC-257 melanoma = system: UACC-257 melanoma

SMILES: O=C(Nc1ccc2ncnc(Nc3ccc(Oc4cccc(F)c4)c(Cl)c3)c2c1)c1ccc(CNCCO)cc1
- GI50 (SF-539 CNS): 1.62 µM
- TGI (SF-539 CNS): 3.01 µM
- GI50 (SK-MEL-28 melanoma): 1.69 µM
- TGI (SK-MEL-28 melanoma): 3.08 µM
- GI50 (ACHN renal): 1.59 µM
- TGI (ACHN renal): 3.05 µM
- GI50 (MDA-MB-231 breast): 1.73 µM
- TGI (MDA-MB-231 breast): 3.27 µM
- GI50 (NCI/ADR-RES ovarian): 7.2 µM
- TGI (NCI/ADR-RES ovarian): 36.9 µM
- GI50 (NCI-H226 lung): 19.7 µM
- TGI (NCI-H226 lung): 56.1 µM
- GI50 (HS 578T breast): 1.64 µM
- TGI (HS 578T breast): 4.42 µM
- GI50 (A498 renal): 2.58 µM
- TGI (A498 renal): 23.4 µM
- GI50 (UACC-62 melanoma): 1.7 µM
- TGI (UACC-62 melanoma): 3.07 µM
- GI50 (COLO 205 colon): 1.8 µM
- TGI (COLO 205 colon): 3.56 µM
- GI50 (DU-145 prostate): 1.8 µM
- TGI (DU-145 prostate): 3.44 µM
- GI50 (SW-620 colon): 1.83 µM
- TGI (SW-620 colon): 3.52 µM
- GI50 (HL-60(TB) leukemia): 2.06 µM
- TGI (HL-60(TB) leukemia): 4.74 µM
- GI50 (OVCAR-4 ovarian): 1.88 µM
- TGI (OVCAR-4 ovarian): 4.81 µM
- GI50 (MALME-3M melanoma): 1.52 µM
- TGI (MALME-3M melanoma): 2.93 µM
- GI50 (OVCAR-5 ovarian): 1.63 µM
- TGI (OVCAR-5 ovarian): 3.17 µM
- GI50 (SK-OV-3 ovarian): 1.14 µM
- TGI (SK-OV-3 ovarian): 2.53 µM

SMILES: O=CC(O)C(O)C(O)C(O)COP(=O)(O)Cc1ccccc1 (stereo not drawn)
- TGI (SK-MEL-28 melanoma): > 10 µM
- TGI (ACHN renal): > 10 µM
- TGI (SK-MEL-5 melanoma): > 10 µM
- TGI (MOLT-4 leukemia): > 10 µM
- TGI (MDA-MB-435): > 10 µM
- TGI (NCI/ADR-RES ovarian): > 10 µM
- TGI (RPMI-8226 leukemia): > 10 µM
- TGI (SR leukemia): > 10 µM
- TGI (NCI-H460 lung): > 10 µM
- TGI (K-562 leukemia): > 10 µM
- TGI (RXF 393 renal): > 10 µM
- TGI (U251 CNS): > 10 µM
- TGI (IGROV1 ovarian): > 10 µM
- TGI (SNB-75 CNS): > 10 µM
- TGI (A549 NSCLC): > 10 µM
- TGI (UACC-62 melanoma): > 10 µM
- TGI (COLO 205 colon): > 10 µM
- TGI (CCRF-CEM leukemia): > 10 µM
- TGI (HOP-62 NSCLC): > 10 µM
- TGI (SF-268 CNS): > 10 µM
- TGI (SW-620 colon): > 10 µM
- TGI (HL-60(TB) leukemia): > 10 µM
- TGI (OVCAR-4 ovarian): > 10 µM
- TGI (MALME-3M melanoma): > 10 µM
- TGI (786-0 renal): > 10 µM
- TGI (OVCAR-5 ovarian): > 10 µM
- TGI (M14 melanoma): > 10 µM
- TGI (CAKI-1 renal): > 10 µM
- TGI (T-47D breast): > 10 µM
- TGI (MCF7 breast): > 10 µM
- TGI (SK-OV-3 ovarian): > 10 µM
- TGI (NCI-H23 lung): > 10 µM
- TGI (SK-MEL-2 melanoma): > 10 µM

SMILES: Nc1nc(Cl)c(N=Nc2ccc(Cl)cc2)c(NCC2(CO)CC2)n1
- GI50 (ACHN renal): 0.411 µM
- GI50 (MDA-MB-231 breast): 11.1 µM
- GI50 (NCI-H522 lung): 47.5 µM
- GI50 (RXF 393 renal): 33.5 µM
- GI50 (SNB-75 CNS): 10.3 µM
- GI50 (SNB-19 CNS): 50 µM
- GI50 (HS 578T breast): 12.6 µM
- GI50 (A498 renal): 90.9 µM
- GI50 (HOP-62 NSCLC): 28.7 µM
- GI50 (SF-268 CNS): 40.9 µM
- GI50 (HOP-92 NSCLC): 1.08 µM
- TGI (HOP-92 NSCLC): 38.1 µM
- GI50 (CAKI-1 renal): 5.06 µM
- GI50 (SK-OV-3 ovarian): 14.2 µM

SMILES: N#Cc1c(N)nc(N2CCOCC2)c(C#N)c1-c1cccnc1
- GI50 (SF-539 CNS): > 100 µM
- TGI (SF-539 CNS): > 100 µM
- GI50 (SK-MEL-28 melanoma): > 100 µM
- TGI (SK-MEL-28 melanoma): > 100 µM
- GI50 (ACHN renal): 48.7 µM
- TGI (ACHN renal): > 100 µM
- GI50 (BT-549 breast): > 100 µM
- TGI (BT-549 breast): > 100 µM
- GI50 (SK-MEL-5 melanoma): > 100 µM
- TGI (SK-MEL-5 melanoma): > 100 µM
- GI50 (MOLT-4 leukemia): > 100 µM
- TGI (MOLT-4 leukemia): > 100 µM
- GI50 (SN12C renal): 97.2 µM
- TGI (SN12C renal): > 100 µM
- GI50 (MDA-MB-435): > 100 µM
- TGI (MDA-MB-435): > 100 µM
- GI50 (HCT-116 colon): 86.6 µM
- TGI (HCT-116 colon): > 100 µM
- GI50 (EKVX NSCLC): 83.8 µM
- TGI (EKVX NSCLC): > 100 µM
- GI50 (MDA-MB-231 breast): 27.6 µM
- TGI (MDA-MB-231 breast): > 100 µM
- GI50 (NCI/ADR-RES ovarian): 81.7 µM
- TGI (NCI/ADR-RES ovarian): > 100 µM
- GI50 (HCT-15 colon): > 100 µM
- TGI (HCT-15 colon): > 100 µM
- GI50 (NCI-H226 lung): 81.8 µM
- TGI (NCI-H226 lung): > 100 µM
- GI50 (RPMI-8226 leukemia): 45.5 µM
- TGI (RPMI-8226 leukemia): > 100 µM
- GI50 (PC-3 prostate): 33.5 µM
- TGI (PC-3 prostate): > 100 µM
- GI50 (OVCAR-3 ovarian): 26.6 µM
- TGI (OVCAR-3 ovarian): 89.7 µM
- GI50 (NCI-H522 lung): 22.3 µM
- TGI (NCI-H522 lung): 81.7 µM
- GI50 (NCI-H460 lung): > 100 µM
- TGI (NCI-H460 lung): > 100 µM
- GI50 (K-562 leukemia): 71.7 µM
- TGI (K-562 leukemia): > 100 µM
- GI50 (HT29 colon): > 100 µM
- TGI (HT29 colon): > 100 µM
- GI50 (RXF 393 renal): > 100 µM
- TGI (RXF 393 renal): > 100 µM
- GI50 (U251 CNS): > 100 µM
- TGI (U251 CNS): > 100 µM
- GI50 (TK-10 renal): > 100 µM
- TGI (TK-10 renal): > 100 µM
- GI50 (IGROV1 ovarian): 17.2 µM
- TGI (IGROV1 ovarian): 44.8 µM
- GI50 (SNB-75 CNS): 11.1 µM
- TGI (SNB-75 CNS): 43.6 µM
- GI50 (A549 NSCLC): > 100 µM
- TGI (A549 NSCLC): > 100 µM
- GI50 (SNB-19 CNS): 77.2 µM
- TGI (SNB-19 CNS): > 100 µM
- GI50 (HS 578T breast): 66.1 µM
- TGI (HS 578T breast): > 100 µM
- GI50 (LOX IMVI melanoma): 63.1 µM
- TGI (LOX IMVI melanoma): > 100 µM
- GI50 (A498 renal): 27.5 µM
- TGI (A498 renal): 80.8 µM
- GI50 (UACC-62 melanoma): 43.4 µM
- TGI (UACC-62 melanoma): > 100 µM
- GI50 (COLO 205 colon): 36 µM
- TGI (COLO 205 colon): 96.2 µM
- GI50 (OVCAR-8 ovarian): > 100 µM
- TGI (OVCAR-8 ovarian): > 100 µM
- GI50 (UO-31 renal): 24.1 µM
- TGI (UO-31 renal): > 100 µM
- GI50 (SF-295 CNS): 44.4 µM
- TGI (SF-295 CNS): > 100 µM
- GI50 (HCC-2998 colon): 8.8 µM
- TGI (HCC-2998 colon): 49.4 µM
- GI50 (CCRF-CEM leukemia): 39.3 µM
- TGI (CCRF-CEM leukemia): > 100 µM
- GI50 (HOP-62 NSCLC): 24.9 µM
- TGI (HOP-62 NSCLC): > 100 µM
- GI50 (SF-268 CNS): > 100 µM
- TGI (SF-268 CNS): > 100 µM
- GI50 (DU-145 prostate): > 100 µM
- TGI (DU-145 prostate): > 100 µM
- GI50 (SW-620 colon): > 100 µM
- TGI (SW-620 colon): > 100 µM
- GI50 (HL-60(TB) leukemia): 95.6 µM
- TGI (HL-60(TB) leukemia): > 100 µM
- GI50 (OVCAR-4 ovarian): 44.4 µM
- TGI (OVCAR-4 ovarian): > 100 µM
- GI50 (MALME-3M melanoma): 37.2 µM
- TGI (MALME-3M melanoma): 91.4 µM
- GI50 (KM12 colon): > 100 µM
- TGI (KM12 colon): > 100 µM
- GI50 (786-0 renal): > 100 µM
- TGI (786-0 renal): > 100 µM
- GI50 (OVCAR-5 ovarian): 25.7 µM
- TGI (OVCAR-5 ovarian): 73.5 µM
- GI50 (M14 melanoma): 71.2 µM
- TGI (M14 melanoma): > 100 µM
- GI50 (HOP-92 NSCLC): 24.8 µM
- TGI (HOP-92 NSCLC): > 100 µM
- GI50 (CAKI-1 renal): 32.6 µM
- TGI (CAKI-1 renal): 95 µM
- GI50 (T-47D breast): 34 µM
- TGI (T-47D breast): 66.7 µM
- GI50 (MCF7 breast): 55.8 µM
- TGI (MCF7 breast): > 100 µM
- GI50 (UACC-257 melanoma): 93.1 µM
- TGI (UACC-257 melanoma): > 100 µM
- GI50 (SK-OV-3 ovarian): 47.8 µM
- TGI (SK-OV-3 ovarian): 99.6 µM
- GI50 (SK-MEL-2 melanoma): > 100 µM
- TGI (SK-MEL-2 melanoma): > 100 µM

Source: PubChem BioAssay (NCI)
